Data from US10670605B2, “Cysteine reactive probes and uses thereof” (The Scripps Research Institute, priority 2015, dated 2020).

What was measured:
Assay in all cases: Competitive isoTOP-ABPP in situ (fragment-treated cells)
Format in all cases: cell-based
[1] = target: T1, cysteines in MDA-MB-231 and Ramos cells (Homo sapiens, UniProt P13667); details: 200 μM, insitu
T1 sequence (P13667 21-645): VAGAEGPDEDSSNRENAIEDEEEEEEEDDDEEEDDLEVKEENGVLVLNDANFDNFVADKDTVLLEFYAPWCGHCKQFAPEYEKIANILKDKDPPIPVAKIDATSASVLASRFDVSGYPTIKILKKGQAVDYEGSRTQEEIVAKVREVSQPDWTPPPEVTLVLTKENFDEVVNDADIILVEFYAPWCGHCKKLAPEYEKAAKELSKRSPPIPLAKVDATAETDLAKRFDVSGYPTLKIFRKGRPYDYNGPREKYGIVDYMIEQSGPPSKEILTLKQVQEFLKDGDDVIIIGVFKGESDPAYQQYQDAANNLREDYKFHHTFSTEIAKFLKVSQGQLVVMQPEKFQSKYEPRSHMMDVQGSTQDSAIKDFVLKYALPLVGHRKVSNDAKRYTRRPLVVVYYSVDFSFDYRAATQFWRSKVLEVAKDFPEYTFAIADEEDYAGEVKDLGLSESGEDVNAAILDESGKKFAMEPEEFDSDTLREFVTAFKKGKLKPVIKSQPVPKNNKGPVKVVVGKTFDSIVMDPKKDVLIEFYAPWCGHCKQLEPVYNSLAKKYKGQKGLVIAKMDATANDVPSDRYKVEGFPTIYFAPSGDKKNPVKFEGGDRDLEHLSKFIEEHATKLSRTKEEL

[2] = target: cysteines in MDA-MB-231 and Ramos cells (Homo sapiens, UniProt P62888); details: 200 μM, insitu
[3] = target: T2, cysteines in MDA-MB-231 and Ramos cells (Homo sapiens, UniProt Q9BQ69); details: 200 μM, insitu
T2 sequence (Q9BQ69 1-325): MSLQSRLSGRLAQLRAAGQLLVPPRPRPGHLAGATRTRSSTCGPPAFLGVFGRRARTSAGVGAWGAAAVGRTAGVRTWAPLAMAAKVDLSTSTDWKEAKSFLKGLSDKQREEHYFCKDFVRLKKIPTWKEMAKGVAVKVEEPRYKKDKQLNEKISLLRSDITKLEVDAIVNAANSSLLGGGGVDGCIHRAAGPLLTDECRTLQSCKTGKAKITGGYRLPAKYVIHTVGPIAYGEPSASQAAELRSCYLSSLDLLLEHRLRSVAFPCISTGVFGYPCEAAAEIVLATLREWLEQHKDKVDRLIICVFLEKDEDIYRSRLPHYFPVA

[4] = target: T3, cysteines in MDA-MB-231 and Ramos cells (Homo sapiens, UniProt P42765); details: 200 μM, insitu
T3 sequence (P42765 1-397): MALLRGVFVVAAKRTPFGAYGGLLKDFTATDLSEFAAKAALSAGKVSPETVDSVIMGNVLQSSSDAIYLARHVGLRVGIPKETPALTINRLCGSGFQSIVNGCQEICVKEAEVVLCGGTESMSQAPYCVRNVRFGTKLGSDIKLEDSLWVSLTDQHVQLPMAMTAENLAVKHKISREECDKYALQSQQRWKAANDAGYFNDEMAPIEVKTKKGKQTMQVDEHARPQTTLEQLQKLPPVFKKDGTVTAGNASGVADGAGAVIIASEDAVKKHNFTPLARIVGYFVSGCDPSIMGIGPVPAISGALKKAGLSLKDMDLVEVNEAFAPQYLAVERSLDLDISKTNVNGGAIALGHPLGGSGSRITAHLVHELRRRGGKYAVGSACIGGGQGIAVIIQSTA

[5] = target: T4, cysteines in MDA-MB-231 and Ramos cells (Homo sapiens, UniProt P24752); details: 200 μM, insitu
T4 sequence (P24752 34-427): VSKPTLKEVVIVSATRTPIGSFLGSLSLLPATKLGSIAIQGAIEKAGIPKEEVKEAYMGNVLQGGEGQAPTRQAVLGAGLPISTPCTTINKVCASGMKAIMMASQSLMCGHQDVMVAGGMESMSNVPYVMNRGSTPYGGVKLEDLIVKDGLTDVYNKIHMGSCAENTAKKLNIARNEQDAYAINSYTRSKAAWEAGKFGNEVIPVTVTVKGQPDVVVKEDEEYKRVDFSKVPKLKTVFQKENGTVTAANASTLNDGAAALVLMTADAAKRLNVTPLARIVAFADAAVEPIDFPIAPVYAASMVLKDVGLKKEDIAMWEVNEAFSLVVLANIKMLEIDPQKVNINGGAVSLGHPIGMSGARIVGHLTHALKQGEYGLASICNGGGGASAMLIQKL

[6] = target: T5, cysteines in MDA-MB-231 and Ramos cells (Homo sapiens, UniProt Q13418); details: 200 μM, insitu, 231
T5 sequence (Q13418 1-452): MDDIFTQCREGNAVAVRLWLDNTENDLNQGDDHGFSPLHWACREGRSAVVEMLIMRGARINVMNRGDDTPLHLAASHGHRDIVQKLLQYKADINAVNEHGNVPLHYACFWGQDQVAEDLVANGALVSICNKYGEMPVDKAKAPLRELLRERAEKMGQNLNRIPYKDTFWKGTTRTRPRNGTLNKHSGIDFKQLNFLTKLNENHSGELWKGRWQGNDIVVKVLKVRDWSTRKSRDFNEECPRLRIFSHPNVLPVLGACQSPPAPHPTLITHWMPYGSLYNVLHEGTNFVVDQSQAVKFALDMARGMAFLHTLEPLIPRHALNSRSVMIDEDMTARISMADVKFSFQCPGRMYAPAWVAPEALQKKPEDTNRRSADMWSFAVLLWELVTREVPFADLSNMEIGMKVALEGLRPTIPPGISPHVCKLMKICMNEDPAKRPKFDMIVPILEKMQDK

[7] = target: T6, cysteines in MDA-MB-231 and Ramos cells (Homo sapiens, UniProt A6NDU8); details: 200 μM, insitu
T6 sequence (A6NDU8 1-294): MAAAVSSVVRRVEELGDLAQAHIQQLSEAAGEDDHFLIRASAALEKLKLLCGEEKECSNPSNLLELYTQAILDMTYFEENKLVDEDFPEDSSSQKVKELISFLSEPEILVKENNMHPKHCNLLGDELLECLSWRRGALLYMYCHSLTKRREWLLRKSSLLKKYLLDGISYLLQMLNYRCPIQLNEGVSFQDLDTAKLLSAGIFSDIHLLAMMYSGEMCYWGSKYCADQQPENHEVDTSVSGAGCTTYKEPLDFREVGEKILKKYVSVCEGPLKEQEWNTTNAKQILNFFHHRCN

isoTOP-ABPP ratio P13667_C206 [1]; 231 | isoTOP-ABPP ratio P13667_C555 [1]; 231 | isoTOP-ABPP ratio P62888_C92 [2]; 231 | isoTOP-ABPP ratio Q9BQ69_C186 [3]; 231 | isoTOP-ABPP ratio P42765_C92 [4]; 231 | isoTOP-ABPP ratio P24752_C119 [5]; 231 | isoTOP-ABPP ratio P24752_C413 [5]; 231 | isoTOP-ABPP ratio, P24752_C126 [5]; 231 | isoTOP-ABPP ratio Q13418_C346 [6] | isoTOP-ABPP ratio A6NDU8_C179 [7]; 231 | isoTOP-ABPP ratio P13667_C206 ([1]; ramos) | isoTOP-ABPP ratio P13667_C555 ([1]; ramos) | isoTOP-ABPP ratio P42765_C92 ([4]; ramos) | isoTOP-ABPP ratio P24752_C119 ([5]; ramos) | Structure (SMILES) | further results
0.8 | 0.8 | – | 0.5 | 0.8 | 0.6 | 1.0 | 0.7 | 0.6 | – | 1.1 | 1.1 | 1.2 | 0.7 | C=CC(=O)N(Cc1cccnc1)c1cc(C(F)(F)F)cc(C(F)(F)F)c1 [compound 31] | –
1.9 | 2.6 | 2.2 | 3.3 | 15.1 | 12.4 | 20.0 | – | – | 20.0 | – | – | – | – | CC1CCc2ccccc2N1C(=O)CCl (stereo not drawn) [compound 45] | –
5.3 | 6.0 | 0.9 | 1.2 | 1.1 | 0.7 | 1.1 | – | 0.8 | – | – | – | – | – | O=C(CCl)Nc1cccc2ncccc12 [compound 51] | –

The remaining lines, values behind:

Structure (SMILES) | isoTOP-ABPP ratio P13667_C206 [1]; 231 | isoTOP-ABPP ratio P13667_C555 [1]; 231 | isoTOP-ABPP ratio P62888_C92 [2]; 231 | isoTOP-ABPP ratio Q9BQ69_C186 [3]; 231 | isoTOP-ABPP ratio P42765_C92 [4]; 231 | isoTOP-ABPP ratio P24752_C119 [5]; 231 | isoTOP-ABPP ratio P24752_C413 [5]; 231 | isoTOP-ABPP ratio, P24752_C126 [5]; 231 | isoTOP-ABPP ratio Q13418_C346 [6] | isoTOP-ABPP ratio A6NDU8_C179 [7]; 231 | isoTOP-ABPP ratio P13667_C206 ([1]; ramos) | isoTOP-ABPP ratio P13667_C555 ([1]; ramos) | isoTOP-ABPP ratio P42765_C92 ([4]; ramos) | isoTOP-ABPP ratio P24752_C119 ([5]; ramos) | further results
O=C(CCl)NC(=O)NC12CC3CC(CC(C3)C1)C2 [compound 12] | 16.6 | 20.0 | 1.1 | 2.7 | 20.0 | 4.1 | 9.9 | 5.8 | 0.6 | – | – | – | – | – | isoTOP-ABPP ratio, P24752_C196 [5]; 231: 4.6
COc1ccccc1OCCNC(=O)CCl [compound 28] | 1.3 | – | 0.9 | – | – | 1.0 | 1.0 | 1.2 | – | 0.8 | – | – | – | – | –
O=C(CCl)N1CCN(CC(=O)N2CCOCC2)CC1 [compound 29] | – | – | – | – | – | – | – | – | – | – | 1.4 | 1.5 | 0.9 | 1.2 | isoTOP-ABPP ratio A6NDU8_C179 ([7]; ramos): 1.0; isoTOP-ABPP ratio P62888_C92 ([2]; ramos): 2.0; isoTOP-ABPP ratio Q9BQ69_C186 ([3]; ramos): 1.5; isoTOP-ABPP ratio P24752_C413 ([5]; ramos): 1.2; isoTOP-ABPP ratio, P24752_C126 ([5]; ramos): 1.2; isoTOP-ABPP ratio, P24752_C196 ([5]; ramos): 1.1
